Measurements taken from ChEMBL document CHEMBL1201861, “Genomics of Drug Sensitity in Cancer screening data, Wellcome Trust Sanger Institute”.

Experiments:
Experiment in all cases: cells
KP-N-YS = format: functional, cell-based, Homo sapiens; conditions: Homo sapiens, KP-N-YS;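 also: cell viability assay measuring inhibition of cell line growth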
Description: SANGER: Inhibition of human KP-N-YS cell growth in a cell viability assay.

D-247MG = format: functional, cell-based; conditions: Homo sapiens
Description: SANGER: Inhibition of human D-247MG cell growth in a cell viability assay.

EW-18 = format: functional, cell-based, Homo sapiens; conditions: Homo sapiens, EW-18; read-out: IC50;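 also: growth inhibition of EW-18 cells, read out by a cell viability assay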
Description: SANGER: Inhibition of human EW-18 cell growth in a cell viability assay.

no-10 = format: functional, cell-based, Homo sapiens; conditions: Homo sapiens;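 also: growth inhibition of no-10 cells, read out with a cell viability assay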
Description: SANGER: Inhibition of human no-10 cell growth in a cell viability assay.

SK-PN-DW = format: functional, cell-based, Homo sapiens; conditions: Homo sapiens, SK-PN-DW;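 also: growth inhibition measured with a viability assay on these cells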
Description: SANGER: Inhibition of human SK-PN-DW cell growth in a cell viability assay.

BV-173 = format: functional, cell-based, Homo sapiens; conditions: Homo sapiens, BV-173
Description: SANGER: Inhibition of human BV-173 cell growth in a cell viability assay.

NCI-H1355 = format: functional, cell-based, Homo sapiens; conditions: Homo sapiens, NCI-H1355;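 also: growth inhibition of human NCI-H1355 cells, read out by a cell viability assay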
Description: SANGER: Inhibition of human NCI-H1355 cell growth in a cell viability assay.

GR-ST = format: functional, cell-based, Homo sapiens; conditions: Homo sapiens, GR-ST
Description: SANGER: Inhibition of human GR-ST cell growth in a cell viability assay.

LB771-HNC = format: functional, cell-based; conditions: Homo sapiens;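 also: growth inhibition of LB771-HNC human cells, read out with a cell viability assay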
Description: SANGER: Inhibition of human LB771-HNC cell growth in a cell viability assay.

SCH = format: functional, cell-based, Homo sapiens; conditions: Homo sapiens, SCH;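 also: growth inhibition of human SCH cells, read out in a cell viability assay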
Description: SANGER: Inhibition of human SCH cell growth in a cell viability assay.

TE-5 = format: functional, cell-based, Homo sapiens; conditions: Homo sapiens, TE-5;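 also: inhibition of cell growth, read out by a cell viability assay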
Description: SANGER: Inhibition of human TE-5 cell growth in a cell viability assay.

L-363 = format: functional, cell-based, Homo sapiens; conditions: Homo sapiens, L-363
Description: SANGER: Inhibition of human L-363 cell growth in a cell viability assay.

SW 962 = format: functional, cell-based, Homo sapiens; conditions: Homo sapiens, SW 962;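 also: growth inhibition of human SW962 cells, read out by a cell viability assay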
Description: SANGER: Inhibition of human SW962 cell growth in a cell viability assay.

MHH-NB-11 = format: functional, cell-based, Homo sapiens; conditions: Homo sapiens, MHH-NB-11;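 also: growth inhibition of human MHH-NB-11 cells, read out by a cell viability assay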
Description: SANGER: Inhibition of human MHH-NB-11 cell growth in a cell viability assay.

SNB-75 = format: functional, cell-based, Homo sapiens; conditions: Homo sapiens, SNB-75;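 also: cell viability assay measuring growth inhibition of human SNB-75 cells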
Description: SANGER: Inhibition of human SNB75 cell growth in a cell viability assay.

PSN1 = format: functional, cell-based, Homo sapiens; conditions: Homo sapiens, PSN1;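 also: suppression of growth of human PSN1 cells, read out by a cell viability assay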
Description: SANGER: Inhibition of human PSN1 cell growth in a cell viability assay.

LB1047-RCC = format: functional, cell-based, Homo sapiens; conditions: Homo sapiens, LB1047-RCC;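 also: inhibition of cell growth, determined with a cell viability assay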
Description: SANGER: Inhibition of human LB1047-RCC cell growth in a cell viability assay.

HCC1187 = format: functional, cell-based, Homo sapiens; conditions: Homo sapiens, HCC1187;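 also: growth inhibition of HCC1187 cells, read out with a cell viability assay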
Description: SANGER: Inhibition of human HCC1187 cell growth in a cell viability assay.

NB5 = format: functional, cell-based, Homo sapiens; conditions: Homo sapiens, NB5;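 also: growth inhibition of NB5 cells, read out as cell viability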
Description: SANGER: Inhibition of human NB5 cell growth in a cell viability assay.

GI-1 = format: functional, cell-based, Homo sapiens; conditions: Homo sapiens, GI-1;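 also: growth inhibition of human GI-1 cells, measured with a cell viability readout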
Description: SANGER: Inhibition of human GI-1 cell growth in a cell viability assay.

NB6 = format: functional, cell-based, Homo sapiens; conditions: Homo sapiens, NB6;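 also: growth inhibition of NB6 cells, read out by a cell viability assay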
Description: SANGER: Inhibition of human NB6 cell growth in a cell viability assay.

GAK = format: functional, cell-based, Homo sapiens; conditions: Homo sapiens, GAK;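 also: cell growth inhibition read out by a cell viability assay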
Description: SANGER: Inhibition of human GAK cell growth in a cell viability assay.

HCC2157 = format: functional, cell-based, Homo sapiens; conditions: Homo sapiens, HCC2157;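 also: growth inhibition of the cancer cell line, read out as cell viability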
Description: SANGER: Inhibition of human HCC2157 cell growth in a cell viability assay.

U-87 MG = format: functional, cell-based, Homo sapiens, U-87MG ATCC; conditions: Homo sapiens, U-87 MG;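 also: growth inhibition of the cells measured with a viability assay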
Description: SANGER: Inhibition of human U-87-MG cell growth in a cell viability assay.

NCI-H526 = format: functional, cell-based, Homo sapiens; conditions: Homo sapiens, NCI-H526;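 also: growth inhibition of the human NCI-H526 cell line, measured by a cell viability assay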
Description: SANGER: Inhibition of human NCI-H526 cell growth in a cell viability assay.

MV4-11 = format: functional, cell-based, Homo sapiens, MV-4-11; conditions: Homo sapiens, MV4-11;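 also: cell viability readout measuring growth inhibition of human MV-4-11 cells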
Description: SANGER: Inhibition of human MV-4-11 cell growth in a cell viability assay.

NEC8 = format: functional, cell-based, Homo sapiens; conditions: Homo sapiens, NEC8;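 also: growth inhibition of human NEC8 cells, read out by a cell viability assay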
Description: SANGER: Inhibition of human NEC8 cell growth in a cell viability assay.

HAL-01 = format: functional, cell-based, Homo sapiens; conditions: Homo sapiens, HAL-01;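 also: growth inhibition of human HAL-01 cells, read out with a cell viability assay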
Description: SANGER: Inhibition of human HAL-01 cell growth in a cell viability assay.

RH-1 = format: functional, cell-based, Homo sapiens; conditions: Homo sapiens, RH-1;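 also: growth inhibition of human RH-1 cells, read out with a cell viability assay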
Description: SANGER: Inhibition of human RH-1 cell growth in a cell viability assay.

ES5 = format: functional, cell-based, Homo sapiens; conditions: Homo sapiens, ES5;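 also: growth inhibition of human ES5 cells, read out by a cell viability assay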
Description: SANGER: Inhibition of human ES5 cell growth in a cell viability assay.

NCI-H720 = format: functional, cell-based, Homo sapiens; conditions: Homo sapiens, NCI-H720;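 also: growth inhibition of human NCI-H720 cells determined by a cell viability assay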
Description: SANGER: Inhibition of human NCI-H720 cell growth in a cell viability assay.

L-428 = format: functional, cell-based, Homo sapiens; conditions: Homo sapiens, L-428
Description: SANGER: Inhibition of human L-428 cell growth in a cell viability assay.

CCRF-CEM = format: functional, cell-based, Homo sapiens; conditions: Homo sapiens, CCRF-CEM;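 also: inhibition of CCRF-CEM cell growth, measured by a cell viability assay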
Description: SANGER: Inhibition of human CCRF-CEM cell growth in a cell viability assay.

OCI-AML2 = format: functional, cell-based, Homo sapiens; conditions: Homo sapiens, OCI-AML2;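 also: growth inhibition of OCI-AML2 cells, read out with a cell viability assay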
Description: SANGER: Inhibition of human OCI-AML2 cell growth in a cell viability assay.

SJSA-1 = format: functional, cell-based, Homo sapiens; conditions: Homo sapiens, SJSA-1;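 also: growth inhibition of human SJSA-1 cells, read out through a cell viability measurement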
Description: SANGER: Inhibition of human SJSA-1 cell growth in a cell viability assay.

NCI-H1092 = format: functional, cell-based, Homo sapiens; conditions: Homo sapiens, NCI-H1092;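 also: cell growth inhibition measured with a cell viability assay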
Description: SANGER: Inhibition of human NCI-H1092 cell growth in a cell viability assay.

SK-NEP-1 = format: functional, cell-based, Homo sapiens; conditions: Homo sapiens, SK-NEP-1;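 also: growth inhibition of human SK-NEP-1 cells, read out by a cell viability assay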
Description: SANGER: Inhibition of human SK-NEP-1 cell growth in a cell viability assay.

8-MG-BA = format: functional, cell-based, Homo sapiens; conditions: Homo sapiens, 8-MG-BA;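 also: growth inhibition of 8-MG-BA cells, read out with a cell viability assay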
Description: SANGER: Inhibition of human 8-MG-BA cell growth in a cell viability assay.

TE-9 = format: functional, cell-based, Homo sapiens; conditions: Homo sapiens, TE-9;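 also: cell growth inhibition, measured with a cell viability readout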
Description: SANGER: Inhibition of human TE-9 cell growth in a cell viability assay.

OCUB-M = format: functional, cell-based; conditions: Homo sapiens;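 also: growth inhibition of the cancer cell line, read out through a cell viability assay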
Description: SANGER: Inhibition of human OCUB-M cell growth in a cell viability assay.

SCC-15 = format: functional, cell-based, Homo sapiens; conditions: Homo sapiens, SCC-15;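 also: growth inhibition of SCC-15 cells, read out with a cell viability assay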
Description: SANGER: Inhibition of human SCC-15 cell growth in a cell viability assay.

NCI-H226 = format: functional, cell-based, Homo sapiens; conditions: Homo sapiens, NCI-H226;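 also: cell viability read-out used to gauge growth inhibition of the cells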
Description: SANGER: Inhibition of human NCI-H226 cell growth in a cell viability assay.

OVCAR-4 = format: functional, cell-based, Homo sapiens; conditions: Homo sapiens, OVCAR-4;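 also: growth inhibition of human OVCAR-4 cells, measured with a cell viability assay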
Description: SANGER: Inhibition of human OVCAR-4 cell growth in a cell viability assay.

QIMR-WIL = format: functional, cell-based, Homo sapiens; conditions: Homo sapiens, QIMR-WIL;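 also: growth inhibition of QIMR-WIL cells, read out with a cell viability assay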
Description: SANGER: Inhibition of human QIMR-WIL cell growth in a cell viability assay.

TGBC1TKB = format: functional, cell-based, Homo sapiens; conditions: Homo sapiens, TGBC1TKB;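 also: growth inhibition of TGBC1TKB cells, read out by a cell viability assay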
Description: SANGER: Inhibition of human TGBC1TKB cell growth in a cell viability assay.

MOLT-16 = format: functional, cell-based, Homo sapiens; conditions: Homo sapiens, MOLT-16;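 also: growth inhibition of human MOLT-16 cells, read out with a cell viability assay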
Description: SANGER: Inhibition of human MOLT-16 cell growth in a cell viability assay.

LXF-289 cell line = format: functional, cell-based; conditions: Homo sapiens
Description: SANGER: Inhibition of human LXF-289 cell growth in a cell viability assay.

RXF 393 = format: functional, cell-based, Homo sapiens; conditions: Homo sapiens, RXF 393;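 also: growth inhibition of human RXF 393 cells, read out with a cell viability assay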
Description: SANGER: Inhibition of human RXF393 cell growth in a cell viability assay.

SMILES: C=CC(=O)N1CCCC(Nc2nc(Nc3ccc(N(C)C(=O)CC)cc3)nc3[nH]cnc23)C1 (centres undefined)
- IC50 (KP-N-YS): > 10.2 µM
- IC50 (D-247MG): > 10.2 µM
- IC50 (EW-18): > 10.2 µM
- IC50 (no-10): > 10.2 µM
- IC50 (SK-PN-DW): > 10.2 µM
- IC50 (BV-173): > 10200 nM
- IC50 (NCI-H1355): > 10200 nM
- IC50 (GR-ST): > 10.2 µM
- IC50 (LB771-HNC): > 10200 nM
- IC50 (SCH): > 10.2 µM
- IC50 (TE-5): > 10.2 µM
- IC50 (L-363): > 10200 nM
- IC50 (SW 962): 5160 nM
- IC50 (MHH-NB-11): > 10.2 µM
- IC50 (SNB-75): > 10.2 µM
- IC50 (PSN1): > 10200 nM
- IC50 (LB1047-RCC): > 10200 nM
- IC50 (HCC1187): > 10.2 µM
- IC50 (NB5): > 10200 nM
- IC50 (GI-1): > 10200 nM
- IC50 (NB6): > 10.2 µM
- IC50 (GAK): > 10.2 µM
- IC50 (HCC2157): > 10.2 µM
- IC50 (U-87 MG): > 10.2 µM
- IC50 (NCI-H526): > 10.2 µM
- IC50 (MV4-11): 2390 nM
- IC50 (NEC8): > 10.2 µM
- IC50 (HAL-01): > 10200 nM
- IC50 (RH-1): > 10.2 µM
- IC50 (ES5): > 10.2 µM
- IC50 (NCI-H720): > 10.2 µM
- IC50 (L-428): > 10.2 µM
- IC50 (CCRF-CEM): > 10.2 µM
- IC50 (OCI-AML2): > 10200 nM
- IC50 (SJSA-1): > 10200 nM
- IC50 (NCI-H1092): > 10.2 µM
- IC50 (SK-NEP-1): > 10.2 µM
- IC50 (8-MG-BA): > 10.2 µM
- IC50 (TE-9): > 10200 nM
- IC50 (OCUB-M): 2100 nM
- IC50 (SCC-15): > 10.2 µM
- IC50 (NCI-H226): > 10.2 µM
- IC50 (OVCAR-4): > 10.2 µM
- IC50 (QIMR-WIL): > 10.2 µM
- IC50 (TGBC1TKB): > 10200 nM
- IC50 (MOLT-16): > 10.2 µM
- IC50 (LXF-289 cell line): > 10200 nM
- IC50 (RXF 393): > 10200 nM

SMILES: NC(=O)c1cccc(-c2cc(Nc3ccc(OC(F)(F)F)cc3)ncn2)c1
- IC50 (KP-N-YS): > 1.28 µM
- IC50 (D-247MG): > 1.28 µM
- IC50 (EW-18): > 1.28 µM
- IC50 (no-10): > 1.28 µM
- IC50 (SK-PN-DW): > 1.28 µM
- IC50 (BV-173): 286 nM
- IC50 (NCI-H1355): > 1280 nM
- IC50 (GR-ST): > 1.28 µM
- IC50 (LB771-HNC): > 1280 nM
- IC50 (SCH): > 1.28 µM
- IC50 (TE-5): > 1.28 µM
- IC50 (L-363): > 1280 nM
- IC50 (SW 962): > 1280 nM
- IC50 (MHH-NB-11): > 1.28 µM
- IC50 (SNB-75): > 1.28 µM
- IC50 (PSN1): > 1280 nM
- IC50 (LB1047-RCC): > 1280 nM
- IC50 (HCC1187): > 1.28 µM
- IC50 (NB5): > 1280 nM
- IC50 (GI-1): > 1280 nM
- IC50 (NB6): > 1.28 µM
- IC50 (GAK): > 1.28 µM
- IC50 (HCC2157): > 1.28 µM
- IC50 (U-87 MG): > 1.28 µM
- IC50 (NCI-H526): > 1.28 µM
- IC50 (MV4-11): > 1280 nM
- IC50 (NEC8): > 1.28 µM
- IC50 (HAL-01): > 1280 nM
- IC50 (RH-1): > 1.28 µM
- IC50 (ES5): > 1.28 µM
- IC50 (NCI-H720): > 1.28 µM
- IC50 (L-428): > 1.28 µM
- IC50 (CCRF-CEM): > 1.28 µM
- IC50 (OCI-AML2): > 1280 nM
- IC50 (SJSA-1): > 1280 nM
- IC50 (NCI-H1092): > 1.28 µM
- IC50 (SK-NEP-1): > 1.28 µM
- IC50 (8-MG-BA): > 1.28 µM
- IC50 (TE-9): > 1280 nM
- IC50 (OCUB-M): > 1280 nM
- IC50 (SCC-15): > 1.28 µM
- IC50 (NCI-H226): > 1.28 µM
- IC50 (OVCAR-4): > 1.28 µM
- IC50 (QIMR-WIL): > 1.28 µM
- IC50 (TGBC1TKB): > 1280 nM
- IC50 (MOLT-16): > 1.28 µM
- IC50 (LXF-289 cell line): > 1280 nM
- IC50 (RXF 393): > 1280 nM

SMILES: Cc1cc(N2CCOCC2)cc2[nH]c(-c3c(NC[C@@H](O)c4cccc(Cl)c4)cc[nH]c3=O)nc12
- IC50 (KP-N-YS): > 5.12 µM
- IC50 (D-247MG): > 5.12 µM
- IC50 (EW-18): > 5.12 µM
- IC50 (no-10): > 5.12 µM
- IC50 (SK-PN-DW): 3.43 µM
- IC50 (BV-173): > 5120 nM
- IC50 (NCI-H1355): 553 nM
- IC50 (GR-ST): 3.27 µM
- IC50 (LB771-HNC): 230 nM
- IC50 (SCH): > 5.12 µM
- IC50 (TE-5): > 5.12 µM
- IC50 (L-363): 328 nM
- IC50 (SW 962): 1200 nM
- IC50 (MHH-NB-11): > 5.12 µM
- IC50 (SNB-75): 3.43 µM
- IC50 (PSN1): 395 nM
- IC50 (LB1047-RCC): 642 nM
- IC50 (HCC1187): > 5.12 µM
- IC50 (NB5): 1110 nM
- IC50 (GI-1): 913 nM
- IC50 (NB6): > 5.12 µM
- IC50 (GAK): > 5.12 µM
- IC50 (HCC2157): > 5.12 µM
- IC50 (U-87 MG): > 5.12 µM
- IC50 (NCI-H526): > 5.12 µM
- IC50 (MV4-11): 206 nM
- IC50 (NEC8): > 5.12 µM
- IC50 (HAL-01): 1120 nM
- IC50 (RH-1): > 5.12 µM
- IC50 (ES5): > 5.12 µM
- IC50 (NCI-H720): > 5.12 µM
- IC50 (L-428): > 5.12 µM
- IC50 (CCRF-CEM): > 5.12 µM
- IC50 (OCI-AML2): 1310 nM
- IC50 (SJSA-1): 456 nM
- IC50 (NCI-H1092): > 5.12 µM
- IC50 (SK-NEP-1): > 5.12 µM
- IC50 (8-MG-BA): 3.93 µM
- IC50 (TE-9): 2500 nM
- IC50 (OCUB-M): > 5120 nM
- IC50 (SCC-15): > 5.12 µM
- IC50 (NCI-H226): > 5.12 µM
- IC50 (OVCAR-4): 4.87 µM
- IC50 (QIMR-WIL): > 5.12 µM
- IC50 (TGBC1TKB): 2310 nM
- IC50 (MOLT-16): 5.02 µM
- IC50 (LXF-289 cell line): 1550 nM
- IC50 (RXF 393): 1300 nM
